Toxic doses and inconclusive results are not listed. Rule for the calls: active = survival T/C of 150% or more; inactive = T/C below 125% in these data.
Tested on: P388 leukemia ip, CD2F1 mice, survival T/C
Assay: NCI In Vivo Anticancer Drug Screen. Data for tumor model P388 Leukemia (intraperitoneal) in CD2F1 (CDF1) mice
Conditions: endpoint: median survival time, higher = longer survival
In short: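 Mice carrying the transplanted tumor received test compound or vehicle. Survival was recorded in each group, and the value is the treated-group measurement divided by that of the vehicle-treated control group.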

[1] = dose: 50.0 mg/kg/injection, schedule: Q01DX005 (ip), vehicle: Klucel (hydroxypropylcellulose) (HPC)
[2] = dose: 100.0 mg/kg/injection, schedule: Q01DX005 (ip), vehicle: Klucel (hydroxypropylcellulose) (HPC)

Measured: T/C

CC(=O)Cc1ccc(C)cc1
inactive: dose: 100.0 mg/kg/injection, schedule: Q04DX003 (ip), vehicle: saline with Tween-80 104 % of control | dose: 200.0 mg/kg/injection, schedule: Q04DX003 (ip), vehicle: saline with Tween-80 104 % of control | dose: 400.0 mg/kg/injection, schedule: Q04DX003 (ip), vehicle: saline with Tween-80 104 % of control

COc1cc(/C=C/C(=O)N2CCN(CC(=O)N3CCCC3)CC2)cc(OC)c1OC
inactive: dose: 50.0 mg/kg/injection, schedule: Q01DX009 (ip), vehicle: saline 100 % of control | dose: 100.0 mg/kg/injection, schedule: Q01DX009 (ip), vehicle: saline 94 % of control | dose: 200.0 mg/kg/injection, schedule: Q01DX009 (ip), vehicle: saline 95 % of control

CCCCCN(CCCCC)CC(O)c1ccc(OC)c2ccccc12 (stereo not given)
inactive: [1] 88 % of control | [2] 88 % of control

Cc1ccc(/C=C2/N=C([Se])N(C)C2=O)cc1
inactive: dose: 15.0 mg/kg/injection, schedule: Q01DX005 (ip), vehicle: saline with Tween-80 100 % of control | dose: 30.0 mg/kg/injection, schedule: Q01DX005 (ip), vehicle: saline with Tween-80 95 % of control | dose: 60.0 mg/kg/injection, schedule: Q01DX005 (ip), vehicle: saline with Tween-80 101 % of control | dose: 120.0 mg/kg/injection, schedule: Q01DX005 (ip), vehicle: saline with Tween-80 86 % of control

S=C(Nc1ccc(Cl)c(Cl)c1)N1c2ccccc2-n2cccc2C1c1cccnc1 (stereo not given)
inactive: dose: 25.0 mg/kg/injection, schedule: Q01DX009 (ip), vehicle: Klucel (hydroxypropylcellulose) (HPC) 115 % of control | dose: 50.0 mg/kg/injection, schedule: Q01DX009 (ip), vehicle: Klucel (hydroxypropylcellulose) (HPC) 113 % of control | dose: 100.0 mg/kg/injection, schedule: Q01DX009 (ip), vehicle: Klucel (hydroxypropylcellulose) (HPC) 113 % of control | dose: 200.0 mg/kg/injection, schedule: Q01DX009 (ip), vehicle: Klucel (hydroxypropylcellulose) (HPC) 121 % of control

COc1ccc2c(c1)/C(=C/CCN(C)C)c1ccccc1S2
inactive: dose: 12.5 mg/kg/injection, schedule: Q04DX003 (ip), vehicle: saline 113 % of control | dose: 25.0 mg/kg/injection, schedule: Q04DX003 (ip), vehicle: saline 109 % of control

COc1cc(C2c3cc4c(cc3CCN2C(=O)c2ccccc2)OCO4)cc(OC)c1OC (stereo not given)
inactive: [1] 93 % of control | [2] 91 % of control | dose: 200.0 mg/kg/injection, schedule: Q01DX005 (ip), vehicle: Klucel (hydroxypropylcellulose) (HPC) 93 % of control

CCC1=C(C(C)OCCO)C(=O)c2ccccc2C1=O (stereo not given)
inactive: dose: 50.0 mg/kg/injection, schedule: Q01DX005 (ip), vehicle: saline with Tween-80 96 % of control | dose: 100.0 mg/kg/injection, schedule: Q01DX005 (ip), vehicle: saline with Tween-80 100 % of control | dose: 200.0 mg/kg/injection, schedule: Q01DX005 (ip), vehicle: saline with Tween-80 94 % of control

CC1(C)CCC(C2=CC(=O)c3c(O)ccc(O)c3C2=O)O1 (stereo not given)
inactive: dose: 3.12 mg/kg/injection, schedule: Q01DX005 (ip), vehicle: saline with Tween-80 103 % of control | dose: 6.25 mg/kg/injection, schedule: Q01DX005 (ip), vehicle: saline with Tween-80 108 % of control | dose: 12.5 mg/kg/injection, schedule: Q01DX005 (ip), vehicle: saline with Tween-80 99 % of control

NC(N)=NC(N)=Nc1cc2c3ccccc3ccc2c2ccccc12
inactive: dose: 25.0 mg/kg/injection, schedule: Q01DX001 (ip), vehicle: saline with Tween-80 100 % of control | dose: 50.0 mg/kg/injection, schedule: Q01DX001 (ip), vehicle: saline with Tween-80 98 % of control | dose: 100.0 mg/kg/injection, schedule: Q01DX001 (ip), vehicle: saline with Tween-80 92 % of control

Reference: PubChem BioAssay AID330 (DTP/NCI, 2004)
